From US9211310B2, “Use of a Chinese medicine composition in preparing medicaments for treating secondary prevention of myocardial infarction” (TASLY PHARMACEUTICAL GROUP CO., LTD, priority 2010, dated 2015)

Tested on: patients after acute myocardial infarction
Assay: TCM symptom score, total and single (chest pain, chest tightness, short breath, fatigue, palpitation, spontaneous perspiration, pale complexion), same clinical trial
Type: in vivo, human
Set-up: total score of TCM symptom, Mean / total score of TCM symptom, Min / total score of TCM symptom, Max / total score of TCM symptom, Md / change of total score of TCM symptom, Mean / change of total score of TCM symptom, Max / change of total score of TCM symptom, Md: scale not given here
Details: PP
Excerpt: 3508 patients who were in accordance with the diagnostic standards of AMI for 28 days to 2 years and differentiated as Qi deficiency and blood stagnation syndrome by TCM were studied. 0.5 g Chinese medicine composition prepared by the method of EXAMPLE 1 (Coded as QSYQ) was administrated half an hour after meal, 3 times per day.
They included the overall survival time, angina pectoris score, TCM symptom score and life quality score, where angina pectoris score, TCM symptom score and life quality score were evaluated at randomization, in 1st, 3rd, 6th, 9th, 12th month after treatment and 18th month after follow-up.
The analysis method referred to the angina pectoris score.

[1] = 6 months after treatment-baseline
[2] = 9 months after treatment-baseline

CC(=O)Oc1ccccc1C(=O)O [Control group, aspirine]
change of spontaneous perspiration 0, number of patients [1]: 774
change of spontaneous perspiration 0, percent of patients [1]: (54.32%)
change of spontaneous perspiration 1, number of patients [1]: 414
change of spontaneous perspiration 1, percent of patients [1]: (29.05%)
change of spontaneous perspiration 2, number of patients [1]: 88
change of spontaneous perspiration 2, percent of patients [1]: (6.18%)
change of spontaneous perspiration 3, number of patients [1]: 24
change of spontaneous perspiration 3, percent of patients [1]: (1.68%)
change of spontaneous perspiration −1, number of patients [1]: 105
change of spontaneous perspiration −1, percent of patients [1]: (7.37%)
change of spontaneous perspiration −2, number of patients [1]: 20
change of spontaneous perspiration −2, percent of patients [1]: (1.40%)
change of spontaneous perspiration −3, number of patients [1]: 0
change of spontaneous perspiration −3, percent of patients [1]: (0.00%)
change of total score of TCM symptom, Max [1]: 19.00
change of total score of TCM symptom, Md [1]: −3.00
change of total score of TCM symptom, Mean [1]: −4.11
change of total score of TCM symptom, Min [1]: −28.00
distribution of total score of TCM symptom: Medium, number of patients (9 months after treatment): 323
distribution of total score of TCM symptom: Medium, percentage of patients (9 months after treatment): (22.84%)
distribution of total score of TCM symptom: Mild, number of patients (9 months after treatment): 1088
distribution of total score of TCM symptom: Mild, percentage of patients (9 months after treatment): (76.94%)
distribution of total score of TCM symptom: Severe, number of patients (9 months after treatment): 3
distribution of total score of TCM symptom: Severe, percentage of patients (9 months after treatment): (0.21%)
fatigue score 0, % of patients (9 months after treatment): (35.22%)
fatigue score 0, number of patients (9 months after treatment): 498
fatigue score 2, % of patients (9 months after treatment): (60.61%)
fatigue score 2, number of patients (9 months after treatment): 857
fatigue score 4, % of patients (9 months after treatment): (3.47%)
fatigue score 4, number of patients (9 months after treatment): 49
fatigue score 6, % of patients (9 months after treatment): (0.71%)
fatigue score 6, number of patients (9 months after treatment): 10
pale complexion score 0, number of patients (9 months after treatment): 788
pale complexion score 0, percent of patients (9 months after treatment): (55.69%)
pale complexion score 1, number of patients (9 months after treatment): 520
pale complexion score 1, percent of patients (9 months after treatment): (36.75%)
pale complexion score 2, number of patients (9 months after treatment): 101
pale complexion score 2, percent of patients (9 months after treatment): (7.14%)
pale complexion score 3, number of patients (9 months after treatment): 6
pale complexion score 3, percent of patients (9 months after treatment): (0.42%)
palpitation score 0, number of patients (9 months after treatment): 496
palpitation score 0, percent of patients (9 months after treatment): (35.05%)
palpitation score 2, number of patients (9 months after treatment): 782
palpitation score 2, percent of patients (9 months after treatment): (55.27%)
palpitation score 4, number of patients (9 months after treatment): 122
palpitation score 4, percent of patients (9 months after treatment): (8.62%)
palpitation score 6, number of patients (9 months after treatment): 15
palpitation score 6, percent of patients (9 months after treatment): (1.06%)
short breath score 0, % of patients (9 months after treatment): (29.42%)
short breath score 0, number of patients (9 months after treatment): 416
short breath score 3, % of patients (9 months after treatment): (58.27%)
short breath score 3, number of patients (9 months after treatment): 824
short breath score 6, % of patients (9 months after treatment): (11.95%)
short breath score 6, number of patients (9 months after treatment): 169
short breath score 9, % of patients (9 months after treatment): (0.35%)
short breath score 9, number of patients (9 months after treatment): 5
spontaneous perspiration score 0, number of patients (9 months after treatment): 678
spontaneous perspiration score 0, percent of patients (9 months after treatment): (47.95%)
spontaneous perspiration score 1, number of patients (9 months after treatment): 652
spontaneous perspiration score 1, percent of patients (9 months after treatment): (46.11%)
spontaneous perspiration score 2, number of patients (9 months after treatment): 79
spontaneous perspiration score 2, percent of patients (9 months after treatment): (5.59%)
spontaneous perspiration score 3, number of patients (9 months after treatment): 5
spontaneous perspiration score 3, percent of patients (9 months after treatment): (0.35%)
total score of TCM symptom, Max (9 months after treatment): 37.00
total score of TCM symptom, Md (9 months after treatment): 8.00
total score of TCM symptom, Mean (9 months after treatment): 8.88
total score of TCM symptom, Min (9 months after treatment): 0.00
change of fatigue 0, % of patients [2]: (48.12%)
change of fatigue 0, number of patients [2]: 679
change of fatigue 2, % of patients [2]: (35.65%)
change of fatigue 2, number of patients [2]: 503
change of fatigue 4, % of patients [2]: (7.94%)
change of fatigue 4, number of patients [2]: 112
change of fatigue 6, % of patients [2]: (1.28%)
change of fatigue 6, number of patients [2]: 18
change of fatigue −2, % of patients [2]: (6.52%)
change of fatigue −2, number of patients [2]: 92
change of fatigue −4, % of patients [2]: (0.50%)
change of fatigue −4, number of patients [2]: 7
change of fatigue −6, % of patients [2]: (0.00%)
change of fatigue −6, number of patients [2]: 0
change of pale complexion 0, number of patients [2]: 1049
change of pale complexion 0, percent of patients [2]: (74.66%)
change of pale complexion 1, number of patients [2]: 316
change of pale complexion 1, percent of patients [2]: (22.49%)
change of pale complexion −1, number of patients [2]: 40
change of pale complexion −1, percent of patients [2]: (2.85%)
change of palpitation 0, number of patients [2]: 749
change of palpitation 0, percent of patients [2]: (53.12%)
change of palpitation 1, number of patients [2]: 493
change of palpitation 1, percent of patients [2]: (34.96%)
change of palpitation 2, number of patients [2]: 71
change of palpitation 2, percent of patients [2]: (5.04%)
change of palpitation 3, number of patients [2]: 6
change of palpitation 3, percent of patients [2]: (0.43%)
change of palpitation −1, number of patients [2]: 87
change of palpitation −1, percent of patients [2]: (6.17%)
change of palpitation −2, number of patients [2]: 4
change of palpitation −2, percent of patients [2]: (0.28%)
change of short breath 0, % of patients [2]: (56.60%)
change of short breath 0, number of patients [2]: 798
change of short breath 2, % of patients [2]: (33.33%)
change of short breath 2, number of patients [2]: 470
change of short breath 4, % of patients [2]: (3.83%)
change of short breath 4, number of patients [2]: 54
change of short breath 6, % of patients [2]: (0.50%)
change of short breath 6, number of patients [2]: 7
change of short breath −2, % of patients [2]: (5.53%)
change of short breath −2, number of patients [2]: 78
change of short breath −4, % of patients [2]: (0.14%)
change of short breath −4, number of patients [2]: 2
change of short breath −6, % of patients [2]: (0.07%)
change of short breath −6, number of patients [2]: 1
change of spontaneous perspiration 0, number of patients [2]: 717
change of spontaneous perspiration 0, percent of patients [2]: (50.85%)
change of spontaneous perspiration 1, number of patients [2]: 434
change of spontaneous perspiration 1, percent of patients [2]: (30.78%)
change of spontaneous perspiration 2, number of patients [2]: 105
change of spontaneous perspiration 2, percent of patients [2]: (7.45%)
change of spontaneous perspiration 3, number of patients [2]: 26
change of spontaneous perspiration 3, percent of patients [2]: (1.84%)
change of spontaneous perspiration −1, percent of patients [2]: (8.65%)
change of spontaneous perspiration −2, number of patients [2]: 6
